Data published in US8309685B2 (Celgene Avilomics Research, Inc., priority 2007, dated 2012).
Where two headings read alike, the source gives them in different places.

Key:
[1] = target: T1, HCV R155K (NS3/4A 1b protease) (Hepatitis C virus genotype 1b, UniProt P26663, R1181K); assay: HCV Protease FRET Assay (IC50), R155K mutant; format: biochemical; conditions: R155K enzyme, read-out: Inhibition, HCV R155K
T1 construct: 10× stocks of NS3/4A protease enzyme from Bioenza (Mountain View, Calif.); purchased Bioenza (Mountain View, Calif.)
Method: HCV Protease FRET Assay for Wild Type and Mutated NS3/4A 1b Enzymes (IC50)
The protocol is a modified FRET-based assay (v—02) from In Vitro Resistance Studies of HCV Serine Protease Inhibitors, 2004, JBC, vol. 279, No. 17, pp 17508-17514.
10× stocks of NS3/4A protease enzyme from Bioenza (Mountain View, Calif.) and 1.13× 5-FAM/QXL™ 520 FRET peptide substrate from Anaspec (San Jose, Calif.) were prepared in 50 mM HEPES, pH 7.8, 100 mM NaCl, 5 mM DTT and 20% glycerol. 5 μL of each enzyme were pre-incubated in a Corning (#3573) 384-well, black, non-treated microtiter plate (Corning, N.Y.) for 30 min at 25° C. with a 0.5 μL volume of 50% DMSO and serially diluted compounds prepared in 50% DMSO. Protease reactions were started with the addition of 45 μL of the FRET substrate and monitored for 120 minutes at λex487/λem514 through Quad^4 monochromoters in a Synergy^4 plate reader from BioTek (Winooski, Vt.). At the conclusion of each assay, progress curves from each well were examined for linear reaction kinetics and fit statistics (R^2, absolute sum of squares). Initial velocity (0 minutes to 30+ minutes) from each reaction was determined from the slope of a plot of relative fluorescence units vs time (minutes) and then plotted against inhibitor concentration to estimate IC50 from log[Inhibitor] vs Response, Variable Slope model in GraphPad Prism from GraphPad Software (San Diego, Calif.).
The compound numbers correspond to the compound numbers in Table 3. […] ;

[2] = system: HCV RNA replicon in cell line ET (luc-ubi-neo/ET), human Huh7 hepatoma; assay: Method A: HCV RNA replicon antiviral assay (luciferase, ET cell line); format: cell-based, Hepatitis C virus; conditions: Hepatitis C virus, Huh-7
In short: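 ET replicon cells (Huh7 carrying luciferase-reporter HCV replicon) plated at 5×10^3 cells/well and exposed 72 hr to six 3-fold drug concentrations in DMEM/5% FBS. Replicon luciferase gave EC50/EC90; CytoTox-1 cell counts gave IC50 (viability); […]. Interferon alpha-2b served as positive control.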

[3] = target: T2, D168A mutant of the HCV NS3/4A 1b protease enzyme (Hepatitis C virus genotype 1b, UniProt P26663, D1194A); assay: HCV Protease FRET Assay (IC50_APP), D168A mutant; format: biochemical; conditions: apparent IC50, D168A mutant; read-out: IC50_APP, HCV D168A
T2 construct: 10× stocks of NS3/4A protease enzyme from Bioenza (Mountain View, Calif.); purchased Bioenza (Mountain View, Calif.)

[4] = target: T3, wild type HCV NS3/4A 1b protease enzyme (Hepatitis C virus genotype 1b, UniProt P26663); assay: HCV Protease FRET Assay (IC50_APP), wild type; format: biochemical; conditions: read-out: IC50_APP, WT; apparent IC50, wild type NS3/4A 1b
T3 construct: 10× stocks of NS3/4A protease enzyme from Bioenza (Mountain View, Calif.); purchased Bioenza (Mountain View, Calif.)

[5] = target: T4, A156T mutant of the HCV NS3/4A 1b protease enzyme (Hepatitis C virus genotype 1b, UniProt P26663, A1182T); assay: HCV Protease FRET Assay (IC50_APP), A156T mutant; format: biochemical; conditions: apparent IC50, A156T mutant; read-out: IC50_APP, HCV A156T
T4 construct: 10× stocks of NS3/4A protease enzyme from Bioenza (Mountain View, Calif.); purchased Bioenza (Mountain View, Calif.)

[6] = target: T5, R155K mutant of the HCV NS3/4A 1b protease enzyme (Hepatitis C virus genotype 1b, UniProt P26663, R1181K); assay: HCV Protease FRET Assay (IC50_APP), R155K mutant; format: biochemical; conditions: apparent IC50, R155K mutant; read-out: IC50_APP, HCV R155K
T5 construct: 10× stocks of NS3/4A protease enzyme from Bioenza (Mountain View, Calif.); purchased Bioenza (Mountain View, Calif.)

[7] = target: T2, D168A mutant of the HCV NS3/4A 1b protease enzyme; assay: HCV Protease FRET Assay (IC50), D168A mutant; format: biochemical; conditions: read-out: Inhibition, HCV D168A; D168A enzyme, FRET assay
HCV NS3/4A protease = HCV NS3/4A protease (UniProt Q9WMX2); assay: Method B: HCV Protease Assay using FRET Methodology; parameters: species or system Hepatitis C virus; conditions: read-out: Inhibition, Biochemical; Enzyme/Assay: Biochemical
Excerpt: Method B: HCV Protease Assay using FRET Methodology
A quantitative, fluorescence resonance energy transfer (FRET)-based methodology was employed to identify HCV NS3/4A protease inhibitors. The assay employed a synthetic FRET peptide, derived from the HCV NS5A/5B cleavage site, with the HCV protease to evaluate the activity of compounds against the protease by monitoring the cleavage activity of the complex. A synthetic peptide which encompasses the NS5A-5B junction (NH2-EDVVCCSMSYK-COOH) was labeled with Dabcyl and Edans at N- and C-termini, respectively (Invitrogen, Carlsbad, Calif.). Fluorescence measurement was used to estimate the IC50 value of the test compound. […] Upon cleavage of the FRET peptide by HCV NS3/4A proteinase complex (100 ng/mL), the fluorescence is recovered and can be continuously monitored at excitation/emission=340/490 nm.

[8] = system: cell line ET (luc-ubi-neo/ET), human Huh7 hepatoma cell line; assay: Method A: cytotoxicity in ET replicon cells (CytoTox-1); format: cell-based; conditions: concentration decreasing cell viability by 50%, 72 hr
In short: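 ET cells (Huh7 carrying luciferase HCV replicon), 5×10^3 cells/well, given six 3-fold compound concentrations in DMEM with 5% FBS. After 72 hr, while subconfluent, cell number was measured with CytoTox-1 reagent. Interferon alpha-2b served as positive control.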

[9] = target: T4, A156T mutant of the HCV NS3/4A 1b protease enzyme; assay: HCV Protease FRET Assay (IC50), A156T mutant; format: biochemical; conditions: read-out: Inhibition, HCV A156T; A156T enzyme, FRET assay
[10] = target: T3, wild type HCV NS3/4A 1b protease enzyme; assay: biochemical; format: biochemical; conditions: read-out: Inhibition, WT; WT enzyme, FRET assay
[11] = target: HCV protease mutant D168A (Hepatitis C virus genotype 1b, UniProt Q9WMX2, D1194A); conditions: biochemical assays, cited from earlier work; for IC50: literature, read-out: Comparative IC50 Values, D168A; for Ki: read-out: Comparative Ki Values, D168A
[12] = target: T6, NS3 protease self-cleavage in Huh-7-Luc-Neo-ET wild-type replicon cells (Hepatitis C virus genotype 1b, UniProt Q9WMX2, E1202G/T1280I); assay: Inhibition of protease self cleavage after compound removal, wild-type replicon cells; format: cell-based; conditions: 16 hours incubation, in as little as 4 hours after removal
T6 construct: host or cells: Huh-7-Luc-Neo-ET (human Huh7 hepatoma cells carrying the replicon)
Method: Inhibition of Protease Self Cleavage
Huh-7-Luc-Neo-ET cells were plated in Replicon Assay Medium (RPMI supplemented with 5% FBS, 1× non-essential amino acids and pen/strep) at a density of 1×10^5 cells/well in 12 well plates. Eight hours later the media was removed and replaced with 1 ml media containing test compound (5 wells per compound) and 0.02% DMSO and the cells were returned to the incubator overnight. Sixteen hours later 1 well from each compound and 1 untreated well were washed with PBS, then lysed and scraped into 30 ul of Cell Extraction Buffer (Biosource, Camarillo, Calif.) plus Complete Protease Inhibitor (Roche, Indianapolis, Ind.). The remaining wells were rinsed 2× with PBS then fed with Replicon Media and returned to the incubator. […]
Cell lysates were separated by SDS-Page (4-20%) and transferred to Immobilon-P PVDF membrane (Millipore Corporation, Mass.) and blotted with polyclonal anti NS3 antibody (Bioenza, Calif.). Blots were scanned on an Odyssey infrared scanner from Licor and the FL band and cleavage products were quantified separately using the Licor software provided with the scanner. The cleavage product was calculated as a percentage of the total NS3 in each sample and then normalized to the DMSO control so that the DMSO control reflects 100% activity.

[13] = target: HCV protease mutant A156T (Hepatitis C virus genotype 1b, UniProt Q9WMX2, A1182T); conditions: biochemical assays, read-out: Comparative Ki Values, A156T; cited from earlier work
[14] = assay described in Example 22, read-out: Replicon (IC50)

Row | SMILES | IC50 [1] | IC90 ([2]; assay described in Example 22) | IC50 [2, 14] | IC50 [3] | IC50 [4] | IC50 [5] | IC50 [6] | IC50 [11] | Ki [11] | Ki [13] | other results
1 | C=CC(=O)NC[C@H](NC(=O)OC(C)(C)C)C(=O)N1C[C@H](Oc2nccc3ccc(Br)cc23)C[C@H]1C(=O)N[C@]1(C(=O)NS(=O)(=O)C2CC2)C[C@H]1C=C [Compound I-73, tert-butyl-(S)-3-acrylamido-1-((2S,4R)-4-(7-bromoisoquinolin-1-yloxy)-2-((1R,2S)-1-(cyclopropylsulfonylcarbamoyl)-2-vinylcyclopropylcarbamoyl)pyrrolidin-1-yl)-1-oxopropan-2-ylcarbamate] | < 10 nM | 100 to 1000 nM | 10 to 100 nM | 100 to 1000 nM | < 10 nM | 10 to 100 nM | 10 to 100 nM | – | – | – | –
2 | C=C[C@@H]1C[C@]1(NC(=O)[C@@H]1C[C@@H](Oc2nccc3ccc(Br)cc23)CN1C(=O)[C@H](CCC(=O)C=C(C)C)NC(=O)OC(C)(C)C)C(=O)NS(=O)(=O)C1CC1 [Compound I-75, tert-butyl-(S)-1-((2S,4R)-4-(7-bromoisoquinolin-1-yloxy)-2-((1R,2S)-1-(cyclopropylsulfonylcarbamoyl)-2-vinylcyclopropylcarbamoyl)pyrrolidin-1-yl)-7-methyl-1,5-dioxooct-6-en-2-ylcarbamate] | 10 to 100 nM | 10 to 100 nM | < 10 nM | 1000 to 10000 nM | < 10 nM | 100 to 1000 nM | 100 to 1000 nM | – | – | – | –
3 | C=C[C@@H]1C[C@]1(NC(=O)[C@@H]1C[C@@H](Oc2cc(-c3ccccc3)nc3cc(OC)ccc23)CN1C(=O)[C@H](CNC(=O)/C=C/C)NC(=O)OC(C)(C)C)C(=O)NS(=O)(=O)c1ccccc1 [Compound I-2, N-[(1,1-dimethylethoxy)carbonyl]-3-[(2-butenoyl)amino]-L-alanyl-(4R)-4-[(7-methoxy-2-phenyl-4-quinolinyl)oxy]-L-prolyl-1-amino-2-ethenyl-N-(phenylsulfonyl)-(1R,2S)-cyclopropanecarboxamide] | – | – | – | – | – | – | – | – | – | – | IC50 ([2]; Replicon, assay of Example 22, 72 hr, read-out: Inhibition, Replicon): 100 to 1000 nM; IC50 [7]: 1000 to 10000 nM; IC50 (HCV NS3/4A protease): 100 to 1000 nM; Inhibition, Cytotoxicity [8]: E (IC50≧10,000 nM); IC50 [9]: 10 to 100 nM; IC50 [10]: < 10 nM
4 | CCC[C@H](NC(=O)[C@@H]1[C@H]2CCC[C@H]2CN1C(=O)[C@@H](NC(=O)[C@@H](NC(=O)c1cnccn1)C1CCCCC1)C(C)(C)C)C(=O)C(=O)NC1CC1 [VX-950] | – | – | – | – | – | – | – | 193 nM | 150 nM | 9900 nM | Return of NS3 self-cleavage activity after drug removal [12]: virtually complete return of activity
5 | COc1ccc2c(O[C@@H]3C[C@H]4C(=O)N[C@]5(C(=O)O)C[C@H]5/C=C\CCCCC[C@H](NC(=O)OC5CCCC5)C(=O)N4C3)cc(-c3csc(NC(C)C)n3)nc2c1 [BILN 2061] | – | – | – | – | – | – | – | 1860 nM | > 1200 nM | > 1200 nM | –
6 | C=CC(=O)N[C@H](C)C(=O)N1C[C@H](Oc2nccc3ccc(Br)cc23)C[C@H]1C(=O)N[C@]1(C(=O)NS(=O)(=O)C2CC2)C[C@H]1C=C [Compound I-74, (2S,4R)-1-((R)-2-acrylamidopropanoyl)-4-(7-bromoisoquinolin-1-yloxy)-N-((1R,2S)-1-(cyclopropylsulfonylcarbamoyl)-2-vinylcyclopropyl)pyrrolidine-2-carboxamide] | < 10 nM | 10 to 100 nM | 10 to 100 nM | 100 to 1000 nM | < 10 nM | 10 to 100 nM | 10 to 100 nM | – | – | – | –
